# Laboratory results taken from US6492416B1, “4,5-diaryl-3(2H)-furanone derivatives as cyclooxygenase-2 inhibitors” (Pacific Corporation, priority 1999, dated 2002).
# What was measured:
# COX-2 = molecular target: T1, COX-2 (Mus musculus, UniProt Q05769); assay: Evaluation of COX-2 activity: PGE2 formation in aspirin-treated, LPS-stimulated mouse peritoneal macrophages; format: cell-based
# T1 sequence (Q05769 18-604): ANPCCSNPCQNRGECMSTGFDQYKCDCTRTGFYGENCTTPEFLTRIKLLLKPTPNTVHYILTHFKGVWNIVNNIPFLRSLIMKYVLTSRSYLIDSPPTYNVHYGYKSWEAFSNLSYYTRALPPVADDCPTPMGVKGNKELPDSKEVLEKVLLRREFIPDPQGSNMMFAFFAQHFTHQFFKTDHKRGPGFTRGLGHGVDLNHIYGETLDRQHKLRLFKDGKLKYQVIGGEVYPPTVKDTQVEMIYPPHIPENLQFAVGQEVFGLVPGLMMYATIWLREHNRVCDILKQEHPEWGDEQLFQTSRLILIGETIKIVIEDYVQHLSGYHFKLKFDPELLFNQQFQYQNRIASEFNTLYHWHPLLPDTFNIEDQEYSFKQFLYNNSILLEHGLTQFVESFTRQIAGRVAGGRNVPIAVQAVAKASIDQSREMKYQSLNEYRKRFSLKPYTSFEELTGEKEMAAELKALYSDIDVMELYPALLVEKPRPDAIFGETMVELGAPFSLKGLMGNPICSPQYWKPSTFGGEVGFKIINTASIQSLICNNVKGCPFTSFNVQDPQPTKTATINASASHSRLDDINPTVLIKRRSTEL
# Procedure: (§1) Evaluation of in vitro COX-2 and COX-1 Activity [J. Pharmacol. Exp. Ther. 166, 96 (1969)]
# (§2) The abdominal skin of a C57BL/6 mouse was sanitized with 70% aqueous ethanol, and was removed without damaging the peritoneum. 5 ml of cold phosphate buffer solution (PBS) was then injected into the abdominal cavity. After a minute, the peritoneal fluid containing the macrophages was collected using a syringe and a needle. The collected fluid was centrifuged for 5 min at 1500 rpm to afford pellets of cells. The pellets were then dispersed in the RPMI-1640 culture medium containing 100 units/ml penicillin and 100 μg/ml streptomycin.
# The pellets dispersed as above were treated with 500 μM aspirin in order to knock out the activity of the COX-1 enzymes in the cells. The suspension was then diluted with the RPMI-1640 medium to contain 1×10^6 cells/ml. 100 μl of the suspension was added to each well of a 96-well ELISA plate. Then the plate was incubated for 2 hrs at 37° C. under 5% CO2 in order to fix the macrophages onto the plate. The cells, which were not fixed onto the plate were removed by washing with PBS two times. […] The RPMI-1640 medium containing 3% fetal bovine serum albumin was added to each well of the plate, which was followed by stimulation with 10 μg/ml lipopolysaccharide (LPS). […] The LPS-treated suspensions were incubated for 16 hours at 37° C. under 5% CO2 to induce COX-2. Then the culture medium was removed and the macrophages were washed two times with PBS. Then 130 μl RPMI-1640 culture medium was added to each well and the macrophage solutions were incubated at 37° C. for 10 minutes, which was followed by the treatment with 10 μM arachidonic acid and an appropriate amount of compounds of this invention. The plate was incubated for another 10 minutes. The upper solution was collected using a micropipette and was subjected to determination of PGE2 amount in the solution. The amount of PGE2 present in the collected solution was determined either by a known radio-immuno assay or by a known enzyme-immunoassay [Methods in Enzymol. 86, 258 (1982); Methods in Enzymol. 187, 24 (1990)]. The extent of COX-2 inhibition by a compound of the present invention was calculated by assuming, that the amount of PGE2 formed with the treatment of 10 μg/ml arachidonic acid was used is the maximum possible amount of PGE2, and that the amount of PGE2 formed without the treatment of arachidonic acid is the minimum possible amount of PGE2.
# (§3) In order to determine IC50 for a compound of this invention, enzymatic activities were measured at multiple concentrations of compounds of this invention around IC50 of the compound. Usually enzymatic activities at 4˜5 concentrations were measured to calculate out IC50 for a compound of this invention.
# COX-1 = molecular target: T2, COX-1 (Mus musculus, UniProt P22437); assay: Evaluation of COX-1 activity: PGE2 formation in mouse peritoneal macrophages without aspirin and LPS treatment; format: cell-based
# T2 sequence (P22437 27-602): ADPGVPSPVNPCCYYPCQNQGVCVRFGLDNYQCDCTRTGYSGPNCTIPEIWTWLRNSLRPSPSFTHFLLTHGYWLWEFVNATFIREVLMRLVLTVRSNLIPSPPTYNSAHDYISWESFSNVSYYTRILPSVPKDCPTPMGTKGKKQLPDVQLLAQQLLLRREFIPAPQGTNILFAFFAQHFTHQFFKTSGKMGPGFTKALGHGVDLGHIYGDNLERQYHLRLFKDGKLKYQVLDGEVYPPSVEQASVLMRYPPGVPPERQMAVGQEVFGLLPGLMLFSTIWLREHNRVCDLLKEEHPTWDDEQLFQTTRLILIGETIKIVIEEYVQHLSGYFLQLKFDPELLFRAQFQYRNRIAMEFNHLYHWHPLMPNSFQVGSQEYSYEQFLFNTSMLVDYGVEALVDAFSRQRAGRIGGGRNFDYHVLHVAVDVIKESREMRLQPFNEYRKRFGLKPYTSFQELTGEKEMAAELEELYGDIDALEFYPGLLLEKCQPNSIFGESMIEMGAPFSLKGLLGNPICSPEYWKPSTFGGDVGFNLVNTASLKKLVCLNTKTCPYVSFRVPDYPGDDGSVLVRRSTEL
# Procedure: as §1, §2
# The pellets dispersed as above were treated with 500 μM aspirin in order to knock out the activity of the COX-1 enzymes in the cells. The suspension was then diluted with the RPMI-1640 medium to contain 1×10^6 cells/ml. 100 μl of the suspension was added to each well of a 96-well ELISA plate. Then the plate was incubated for 2 hrs at 37° C. under 5% CO2 in order to fix the macrophages onto the plate. The cells, which were not fixed onto the plate were removed by washing with PBS two times. The purity of macrophages obtained thereby was confirmed by differential counting. The RPMI-1640 medium containing 3% fetal bovine serum albumin was added to each well of the plate, which was followed by stimulation with 10 μg/ml lipopolysaccharide (LPS). Usually 5×10^5 cells/ml were present by this preparation. The LPS-treated suspensions were incubated for 16 hours at 37° C. under 5% CO2 to induce COX-2. Then the culture medium was removed and the macrophages were washed two times with PBS. Then 130 μl RPMI-1640 culture medium was added to each well and the macrophage solutions were incubated at 37° C. for 10 minutes, which was followed by the treatment with 10 μM arachidonic acid and an appropriate amount of compounds of this invention. The plate was incubated for another 10 minutes. The upper solution was collected using a micropipette and was subjected to determination of PGE2 amount in the solution. The amount of PGE2 present in the collected solution was determined either by a known radio-immuno assay or by a known enzyme-immunoassay [Methods in Enzymol. 86, 258 (1982); Methods in Enzymol. 187, 24 (1990)]. The extent of COX-2 inhibition by a compound of the present invention was calculated by assuming, that the amount of PGE2 formed with the treatment of 10 μg/ml arachidonic acid was used is the maximum possible amount of PGE2, and that the amount of PGE2 formed without the treatment of arachidonic acid is the minimum possible amount of PGE2.
# In the evaluation of COX-1 inhibitory activity by a compound of the present invention, the same procedures employed for evaluation of COX-2 activity were employed, except omitting the following two steps: 1) the treatment with aspirin for knockout of COX-1 activity and 2) treatment with LPS for induction of COX-2.
# as §3
"IC50, μg/ml COX-2 (COX-2) [µg/mL]",melting point [°C],"IC50, μg/ml COX-1 (COX-1) [µg/mL]",SMILES
0.05,189 to 190,50,"CC(=O)c1cccc(C2=C(c3ccc(S(C)(=O)=O)cc3)OC(C)(C)C2=O)c1 [Example 5, 4-(3-acetylphenyl)-2,2-dimethyl-5-{4-(methylsulfonyl)phenyl}-3(2H)-furanone]"
0.05,158 to 159,5,"CC1(C)OC(c2ccc(S(C)(=O)=O)cc2)=C(c2cccc([N+](=O)[O-])c2)C1=O [Example 6, 2,2-Dimethyl-5-{4-(methylsulfonyl)phenyl}-4-(3-nitrophenyl)-3(2H)-furanone]"
0.2,115 to 117,20,"CCC1(C)OC(c2ccc(S(C)(=O)=O)cc2)=C(c2ccccc2)C1=O (stereo not drawn) [Example 31, 2-Ethyl-2-methyl-5-{4-(methylsulfonyl)phenyl}-4-phenyl-3(2H)-furanone]"
0.101,120 to 121,>10,"CCC1(C)OC(c2ccc(S(N)(=O)=O)cc2)=C(c2ccsc2)C1=O (stereo not drawn) [Example 44, 5-{4-(Aminosulfonyl)phenyl}-2-ethyl-2-methyl-4-(3-thienyl)-3(2H)-furanone]"
0.01,154 to 155,1.07,"CCC1(C)OC(c2ccc(S(N)(=O)=O)cc2)=C(c2ccc(C(C)=O)cc2)C1=O (stereo not drawn) [Example 45, 4-(4-Acetylphenyl)-5-{4-(aminosulfonyl)phenyl}-2-ethyl-2-methyl-3(2H)-furanone]"
0.1,109 to 111,50,COc1ccccc1C1=C(c2ccc(S(C)(=O)=O)cc2)OC(C)(C)C1=O [Example 64]
0.05,186 to 187,50,"CC1(C)OC(c2ccc(S(C)(=O)=O)cc2)=C(c2cccc(N)c2)C1=O [Example 66, 4-(3-aminophenyl)-2,2-dimethyl-5-{4-(methylsulfonyl)phenyl}-3(2H)-furanone]"
0.03,187 to 188,3,CC1(C)OC(c2ccc(S(C)(=O)=O)cc2)=C(c2cc(Cl)cc(Cl)c2)C1=O [Example 75]
0.5,142 to 143,50,CC1(C)OC(c2ccc(S(C)(=O)=O)cc2)=C(c2ccc(C(C)(C)C)cc2)C1=O [Example 76]
0.003,150 to 153,5,CC1(C)OC(c2ccc(S(C)(=O)=O)cc2)=C(c2ccc(-c3ccccc3)cc2)C1=O [Example 77]
0.03,83 to 84,30,CC(C)c1cccc(C2=C(c3ccc(S(C)(=O)=O)cc3)OC(C)(C)C2=O)c1 [Example 86]
0.05,159 to 160,5,Cc1ccc(F)cc1C1=C(c2ccc(S(C)(=O)=O)cc2)OC(C)(C)C1=O [Example 94]
0.02,99 to 100,3,CCCc1ccc(C2=C(c3ccc(S(C)(=O)=O)cc3)OC(C)(C)C2=O)cc1 [Example 96]
0.02,–,30,CC1(C)OC(c2ccc(S(C)(=O)=O)c(Br)c2)=C(c2cccc(Cl)c2)C1=O [Example 342]
0.08,–,200,CC1(C)OC(c2ccc(S(C)(=O)=O)c(Br)c2)=C(c2cc(F)ccc2F)C1=O [Example 344]
0.05,–,30,"CC1(C)OC(c2ccc(S(C)(=O)=O)c(Cl)c2)=C(c2ccccc2)C1=O [Example 357, 5-{3-Chloro-4(methylsulfonyl)phenyl}-2,2-dimethyl-4-phenyl-3(2H)-furanone]"
0.3,–,600,"CCNS(=O)(=O)c1ccc(C2=C(c3ccccc3)C(=O)C(C)(C)O2)cc1Cl [Example 373, 5-{3-Chloro-4-(N-ethylaminosulfonyl)phenyl}-2,2-dimethyl-4-phenyl-3(2H)-furanone]"
0.08,–,200,"Cc1cc(C2=C(c3cc(F)cc(F)c3)C(=O)C(C)(C)O2)ccc1S(C)(=O)=O [Example 382, 4-(3,5-Difluorophenyl)-2,2-dimethyl-5-{3-methyl-4-(methylsulfonyl)phenyl}-3(2H)-furanone]"
0.08,–,30,"Cc1cc(C2=C(c3cc(F)cc(F)c3)C(=O)C(C)(C)O2)ccc1S(N)(=O)=O [Example 384, 5-{4-(Aminosulfonyl)-3-methylphenyl}-4-(3-difluorophenyl)-2,2-dimethyl-3(2H)-furanone]"
